By IC50 is commonly meant the concentration at which inhibition is half-maximal.

These results are taken from US20230113037A1 (Bayer Aktiengesellschaft, priority 2019, published 2023).

One test concerns the target T1, AHR (Mus musculus, UniProt P30561).
T1 sequence (P30561 1-848 P471L/N533S/M589L): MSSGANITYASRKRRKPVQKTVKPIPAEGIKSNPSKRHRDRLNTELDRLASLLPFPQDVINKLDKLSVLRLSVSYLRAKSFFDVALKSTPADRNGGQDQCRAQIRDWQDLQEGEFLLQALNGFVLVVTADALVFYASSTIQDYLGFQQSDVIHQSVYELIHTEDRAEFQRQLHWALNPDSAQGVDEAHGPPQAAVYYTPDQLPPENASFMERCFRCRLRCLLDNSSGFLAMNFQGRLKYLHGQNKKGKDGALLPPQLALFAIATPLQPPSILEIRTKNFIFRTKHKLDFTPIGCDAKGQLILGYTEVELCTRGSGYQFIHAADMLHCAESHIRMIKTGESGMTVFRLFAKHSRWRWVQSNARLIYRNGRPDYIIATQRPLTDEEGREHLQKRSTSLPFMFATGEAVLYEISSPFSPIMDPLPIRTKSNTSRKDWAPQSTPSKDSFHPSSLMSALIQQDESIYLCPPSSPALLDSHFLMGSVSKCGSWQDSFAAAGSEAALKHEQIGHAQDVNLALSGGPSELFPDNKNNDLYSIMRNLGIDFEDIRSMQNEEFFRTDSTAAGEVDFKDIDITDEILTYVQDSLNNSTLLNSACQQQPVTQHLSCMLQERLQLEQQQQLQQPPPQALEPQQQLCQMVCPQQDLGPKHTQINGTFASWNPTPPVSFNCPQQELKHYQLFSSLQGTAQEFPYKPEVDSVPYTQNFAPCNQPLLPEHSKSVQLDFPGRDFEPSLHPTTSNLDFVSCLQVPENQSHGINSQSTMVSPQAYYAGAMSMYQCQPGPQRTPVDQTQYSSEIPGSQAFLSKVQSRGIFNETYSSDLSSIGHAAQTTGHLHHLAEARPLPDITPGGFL
As to the kind of experiment: In vitro assay 3: antagonism in mouse cell line (AHR transactivation, firefly luciferase reporter, kynurenic acid prestimulated). Type of test: cell-based. The following applies: Hepa 1c1c7 cells, 200 μM kynurenic acid, 20 hours, firefly luciferase reporter, read-out: AHR Antagonism Mouse IC50. The protocol: Examples were tested in selected biological assays one or more times. When tested more than once, data are reported as either average values or as median values, wherein • the average value, also referred to as the arithmetic mean value, represents the sum of the values obtained divided by the number of times tested, and • the median value represents the middle number of the group of values when ranked in ascending or descending order. If the number of values in the data set is odd, the median is the middle value. If the number of values in the data set is even, the median is the arithmetic mean of the two middle values.
In addition the cells were stably transfected with an AHR inducible firefly luciferase reporter gene construct that carried AHR-binding sites (DRE) in its promoter. Kynurenic acid is an endogenous AHR activating ligand and was used to prestimulate test cells prior to testing the antagonistic properties of compounds.
As positive inhibition control cells without addition of kynurenic acid were incubated. Normalization was done by positive and negative controls.
Firefly luciferase activity was determined by the SteadyGlo Luciferase Assay System (Promega, #E2550).
On to `O=C1NCCNC[C@H]1Nc1nc2c(Br)cccc2c2nc(-c3ccc(Cl)cc3)nn12` [Example 977, (6R)-6-{[7-bromo-2-(4-chlorophenyl)[1,2,4]triazolo[1,5-c]quinazolin-5-yl]amino}-1,4-diazepan-5-one], for which the concentration for half-maximal inhibition (IC50) came to 0.00041 µM.

With `O=C1NCCNC[C@@H]1Nc1nc2ccccc2c2nc(-c3ccc(F)cc3)nn12` [Example 965, (6S)-6-{[2-(4-fluorophenyl)[1,2,4]triazolo[1,5-c]quinazolin-5-yl]amino}-1,4-diazepan-5-one], the IC50 stood at 0.012 µM.

`C[C@@H](Nc1nc2c(Br)cccc2c2nc(-c3cnn(C)c3)nn12)C(=O)NCCCN(C)C` [Example 810, N^2-[7-bromo-2-(1-methyl-1H-pyrazol-4-yl)[1,2,4]triazolo[1,5-c]quinazolin-5-yl]-N-[3-(dimethylamino)propyl]-D-alaninamide]: the IC50 was 0.771 µM.

With `C[C@@H](Nc1nc2ccccc2c2nc(-c3ccccc3OC(F)(F)F)nn12)C(=O)NCCN(C)C` [Example 792, N-[2-(dimethylamino)ethyl]-N^2-{2-[2-(trifluoromethoxy)phenyl][1,2,4]triazolo[1,5-c]quinazolin-5-yl}-D-alaninamide], the IC50 was determined as 0.0287 µM.

On to `O=C1NCCCC[C@H]1Nc1nc2c(Br)cccc2c2nc(-c3cnn(C(F)F)c3)nn12` [Example 827, (3R)-3-({7-bromo-2-[1-(difluoromethyl)-1H-pyrazol-4-yl][1,2,4]triazolo[1,5-c]quinazolin-5-yl}amino)azepan-2-one], for which the IC50 stood at 0.000409 µM.

The test is the same for the next values; noted with them: mouse Hepa 1c1c7 cells, 200 μM kynurenic acid, 20 hours, read-out: AHR Antagonism Mouse IC50.
`COc1ccc(-c2nc3c4ccccc4nc(NC4CNCCNC4=O)n3n2)cc1` (stereo not shown) [Example 34, 6-{[2-(4-methoxyphenyl)[1,2,4]triazolo[1,5-c]quinazolin-5-yl]amino}-1,4-diazepan-5-one]: the IC50 was 0.0238 µM.

As for `CC[C@H](Nc1nc2ccccc2c2nc(-c3cccc(OC(F)(F)F)c3)nn12)C(N)=O` [Example 448, (2S)-2-({2-[3-(trifluoromethoxy)phenyl][1,2,4]triazolo[1,5-c]quinazolin-5-yl}amino)butanamide], the concentration for half-maximal inhibition (IC50) came out at 0.134 µM.

On to `O=C1NCCC[C@H]1Nc1nc2c(Br)cccc2c2nc(-c3ccc(F)cc3)nn12` [Example 226, (3R)-3-{[7-bromo-2-(4-fluorophenyl)[1,2,4]triazolo[1,5-c]quinazolin-5-yl]amino}piperidin-2-one], for which the IC50 was found to be 0.00153 µM.

Regarding `CCCNC(=O)[C@@H](C)Nc1nc2ccccc2c2nc(-c3cc(Cl)ccc3OC(F)(F)F)nn12` [Example 502, N^2-{2-[5-chloro-2-(trifluoromethoxy)phenyl][1,2,4]triazolo[1,5-c]quinazolin-5-yl}-N-propyl-D-alaninamide], the IC50 came to 0.196 µM.

Take `CC[C@H](Nc1nc2ccccc2c2nc(-c3ccc(Cl)cc3OC(F)F)nn12)C(N)=O` [Example 532, (2S)-2-({2-[4-chloro-2-(difluoromethoxy)phenyl][1,2,4]triazolo[1,5-c]quinazolin-5-yl}amino)butanamide]: the concentration for half-maximal inhibition (IC50) is 0.0106 µM.

For `COc1cccc(-c2nc3c4ccccc4nc(N[C@@H](C(=O)O)C(C)C)n3n2)c1` [Example 94, N-[2-(3-methoxyphenyl)[1,2,4]triazolo[1,5-c]quinazolin-5-yl]-D-valine], the half-maximal inhibitory concentration (IC50) came out at 0.017 µM.

Take `O=C1NCCCC[C@H]1Nc1nc2c(F)cccc2c2nc(-c3ccc(F)cc3)nn12` [Example 139, (3R)-3-{[7-fluoro-2-(4-fluorophenyl)[1,2,4]triazolo[1,5-c]quinazolin-5-yl]amino}azepan-2-one]: the 50% inhibitory concentration (IC50) came to 0.000258 µM.

Regarding `O=C1NCCNCC1Nc1nc2cccc(Cl)c2c2nc(-c3ccc(F)cc3)nn12` (single isomer, unassigned) [Example 299, 6-{[10-chloro-2-(4-fluorophenyl)[1,2,4]triazolo[1,5-c]quinazolin-5-yl]amino}-1,4-diazepan-5-one], the IC50 was 0.0373 µM.

As for `O=C1NCCC1Nc1nc2ccccc2c2nc(-c3ccc(F)cc3)nn12` (stereo not shown) [Example 73, 3-{[2-(4-fluorophenyl)[1,2,4]triazolo[1,5-c]quinazolin-5-yl]amino}pyrrolidin-2-one], the IC50 worked out at 0.00387 µM.

In the case of `O=C1NCCNC[C@H]1Nc1nc2ccccc2c2nc(-c3ccc(C(F)(F)F)cc3)nn12` [Example 259, (6R)-6-({2-[4-(trifluoromethyl)phenyl][1,2,4]triazolo[1,5-c]quinazolin-5-yl}amino)-1,4-diazepan-5-one], the IC50 stood at 0.000644 µM.

Consider `COc1ccc(-c2nc3c4c(Br)cccc4nc(N[C@@H]4CNCCNC4=O)n3n2)cc1` (stereo in doubt) [Example 281, 6-{[10-bromo-2-(4-methoxyphenyl)[1,2,4]triazolo[1,5-c]quinazolin-5-yl]amino}-1,4-diazepan-5-one], for which the IC50 is 0.0236 µM.

Consider `O=C1NCCCC[C@H]1Nc1nc2cccc(Br)c2c2nc(-c3ccc(F)cc3)nn12` [Example 166, (3R)-3-{[10-bromo-2-(4-fluorophenyl)[1,2,4]triazolo[1,5-c]quinazolin-5-yl]amino}azepan-2-one], for which the IC50 is 0.00257 µM.

Regarding `COc1cccc(-c2nc3c4cc(C)ccc4nc(N[C@H]4CCCCNC4=O)n3n2)c1` [Example 156, (3S)-3-{[2-(3-methoxyphenyl)-9-methyl[1,2,4]triazolo[1,5-c]quinazolin-5-yl]amino}azepan-2-one], the IC50 turned out to be 0.0142 µM.

Regarding `COc1ccc(-c2nc3c4ccccc4nc(NC4CCNC4=O)n3n2)cc1` (stereo not shown) [Example 31, 3-{[2-(4-methoxyphenyl)[1,2,4]triazolo[1,5-c]quinazolin-5-yl]amino}pyrrolidin-2-one], the concentration for half-maximal inhibition (IC50) is 0.0134 µM.

`O=C1NCCCC[C@H]1Nc1nc2c(C(F)(F)F)cccc2c2nc(-c3ccc(Cl)cc3OC(F)(F)F)nn12` [Example 672, (3R)-3-({2-[4-chloro-2-(trifluoromethoxy)phenyl]-7-(trifluoromethyl)[1,2,4]triazolo[1,5-c]quinazolin-5-yl}amino)azepan-2-one]: the IC50 worked out at 0.00435 µM.

Take `COc1ccc(-c2nc3c4ccccc4nc(N[C@H]4CCCCNC4=O)n3n2)cc1` [Example 30, (3S)-3-{[2-(4-methoxyphenyl)[1,2,4]triazolo[1,5-c]quinazolin-5-yl]amino}azepan-2-one]: the IC50 amounted to 0.00976 µM.

Regarding `Cn1cc(-c2nc3c4cccc(C(F)(F)F)c4nc(NC4C(=O)NCC4(C)C)n3n2)cn1` (single isomer, unassigned; (+)) [Example 730, (+)-4,4-dimethyl-3-{[2-(1-methyl-1H-pyrazol-4-yl)-7-(trifluoromethyl)[1,2,4]triazolo[1,5-c]quinazolin-5-yl]amino}pyrrolidin-2-one], the concentration for half-maximal inhibition (IC50) was above 20 µM.

Regarding `CSc1ccc(-c2nc3c4ccccc4nc(N[C@@H]4CNCCNC4=O)n3n2)cc1` [Example 256, (6R)-6-({2-[4-(methylsulfanyl)phenyl][1,2,4]triazolo[1,5-c]quinazolin-5-yl}amino)-1,4-diazepan-5-one], the IC50 was 0.00694 µM.

On to `Cn1cc(-c2nc3c4ccccc4nc(N[C@H](CO)C(N)=O)n3n2)cn1` [Example 16, N^2-[2-(1-methyl-1H-pyrazol-4-yl)[1,2,4]triazolo[1,5-c]quinazolin-5-yl]-D-serinamide], for which the half-maximal inhibitory concentration (IC50) was above 20 µM.

The test is the same for the next values; noted with them: read-out: AHR Antagonism Mouse IC50, Hepa 1c1c7 cells, 200 μM kynurenic acid, 20 hours, firefly luciferase reporter.
As to `C[C@@H](Nc1nc2ccccc2c2nc(-c3ccccc3OC(F)(F)F)nn12)C(=O)NCCN(C)C` [Example 791, formic acid-N-[2-(dimethylamino)ethyl]-N^2-{2-[2-(trifluoromethoxy)phenyl][1,2,4]triazolo[1,5-c]quinazolin-5-yl}-D-alaninamide (1/1)], the IC50 was 0.264 µM.
